Where two headings read alike, the source gives them in different places. Numbered stars: 1 amine (or outer) side, 2 acyl side, 3 side chain; on linkers, the order of the positions; unused ones are H or OH. Square brackets hold non-standard residues; d marks the D form. Side chains are listed from the residue outwards. Peptide text beside a SMILES is read from it. * marks the point of attachment. γGlu = O=C(O)[C@H](CCC(=O)[*:2])N[*:1]; Stearoyl = CCCCCCCCCCCCCCCCCC(=O)*; Palmitoyl = CCCCCCCCCCCCCCCC(=O)*; αMeF = C[C@](N)(Cc1ccccc1)C(=O)O; Myristoyl = CCCCCCCCCCCCCC(=O)*; αMeK = C[C@](N)(CCCCN)C(=O)O; Lauroyl = CCCCCCCCCCCC(=O)*; αMeS = C[C@](N)(CO)C(=O)O; AEEA = NCCOCCOCC(=O)O; Aib = CC(C)(N)C(=O)O Bounds are passed on as bounds.

Experiment [1] deals with T1, human glucose-dependent insulinotropic peptide receptor (GIPR) (Homo sapiens, UniProt P48546).
T1 construct: expressed in transfected cells; host or cells: HEK293 cells or CHO cells
T1 sequence (P48546 22-466): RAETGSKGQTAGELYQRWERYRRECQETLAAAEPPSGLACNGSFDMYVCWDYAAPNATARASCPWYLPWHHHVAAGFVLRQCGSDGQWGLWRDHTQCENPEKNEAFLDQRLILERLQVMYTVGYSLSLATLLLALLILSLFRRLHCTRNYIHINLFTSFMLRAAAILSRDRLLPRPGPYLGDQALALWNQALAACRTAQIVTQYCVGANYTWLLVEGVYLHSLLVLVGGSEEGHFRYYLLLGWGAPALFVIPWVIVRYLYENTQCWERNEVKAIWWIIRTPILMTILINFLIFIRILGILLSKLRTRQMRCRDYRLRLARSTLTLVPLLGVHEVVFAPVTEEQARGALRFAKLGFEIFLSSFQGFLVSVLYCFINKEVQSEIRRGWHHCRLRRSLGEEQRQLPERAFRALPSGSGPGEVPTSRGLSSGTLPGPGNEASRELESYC
The experiment can be described thus: cAMP assay, human GIPR cells. The format is cell-based. As to conditions: Table 9, bis-lipidated peptides. The protocol: (§1) Sample dilutions are made in duplicate.
(§2) A frozen cryo-vial of cells expressing the receptor of interest is thawed rapidly in a water-bath, transferred to pre-warmed assay buffer and spun at 240×g for 5 minutes. Cells are re-suspended in assay buffer at a batch-dependent optimized concentration (e.g. hGCGR cells at 2×10^5 cells/ml, hGLP-1R and hGIPR cells at 1×10^5 cells/ml).
(§3) To this, 5 μL cell suspension is added and the plates incubated at room temperature for 30 minutes.
(§4) cAMP levels are measured using a commercially available cAMP dynamic 2 HTRF kit (Cisbio, Cat #62AM4PEJ), following the two step protocol as per manufacturer's recommendations. In brief; anti-cAMP cryptate (donor fluorophore) and cAMP-d2 (acceptor fluorophore) are made up separately by diluting each 1/20 in conjugate & lysis buffer provided in the kit. 5 μL anti-cAMP cryptate is added to wells of the assay plate, and 5 μL cAMP-d2 is added to wells except non-specific binding (NSB) wells, to which conjugate and lysis buffer are added. […] EC50 values of the synthetic peptides determined in cAMP assays are then determined.
(§5) Data is transformed to % Delta F as described in the manufacturer's guidelines and analyzed by 4-parameter logistic fit to determine EC50 values. […] To compare the balance of activities at the GLP-1R and GCGR between different peptides and across different conditions, these can be correlated, where the EC50's are related to those of comparator peptides.
On the technique in general: Cyclic AMP is a second messenger, typically raised through Gs and lowered through Gi signalling.

Experiment [2] concerns the target T2, human glucagon receptor (GCGR) (Homo sapiens, UniProt P47871).
T2 construct: expressed in transfected cells; host or cells: HEK293 cells or CHO cells
Kind of experiment: cAMP assay, human GCGR cells. As to conditions: Table 9, bis-lipidated peptides. The format is cell-based. As to the method:
as §1, §2, §3, §4, §5

The mark [3] stands for this setting: first replicate, read-out: Primary assay EC50 GIP-R (n1).
The mark [4] stands for this setting: second replicate, read-out: Primary assay EC50 GIP-R (n2).
Setting [5] is: first replicate, read-out: Primary assay EC50 Gluc-R (n1).
[6] abbreviates: second replicate, read-out: Primary assay EC50 Gluc-R (n2).

T2 sequence (P47871 26-477): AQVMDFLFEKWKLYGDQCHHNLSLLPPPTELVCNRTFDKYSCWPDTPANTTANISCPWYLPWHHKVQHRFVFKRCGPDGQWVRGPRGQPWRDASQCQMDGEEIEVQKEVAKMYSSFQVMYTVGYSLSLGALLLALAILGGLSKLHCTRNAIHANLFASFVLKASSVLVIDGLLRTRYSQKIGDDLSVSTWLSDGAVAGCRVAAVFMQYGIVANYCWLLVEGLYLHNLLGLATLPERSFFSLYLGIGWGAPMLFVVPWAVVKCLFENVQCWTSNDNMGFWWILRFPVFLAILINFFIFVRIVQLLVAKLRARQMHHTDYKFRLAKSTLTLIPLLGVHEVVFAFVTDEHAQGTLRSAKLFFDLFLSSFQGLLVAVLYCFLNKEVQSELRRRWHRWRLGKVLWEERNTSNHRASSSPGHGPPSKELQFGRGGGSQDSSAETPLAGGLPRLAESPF

Usually EC50 stands for the concentration that produces a half-maximal response. Turning to `CCCCCCCCCCCC(=O)N[C@@H](CCC(=O)NCCOCCOCC(=O)NCCOCCOCC(=O)NCCCC[C@H](NC(=O)[C@H](C)NC(=O)[C@@H](NC(=O)[C@H](Cc1ccccc1)NC(=O)[C@H](CCC(=O)O)NC(=O)[C@](C)(CCCCN)NC(=O)[C@H](C)NC(=O)[C@H](C)NC(=O)[C@H](CCC(=O)O)NC(=O)CNC(=O)[C@H](CCC(=O)O)NC(=O)[C@H](CC(C)C)NC(=O)[C@H](Cc1ccc(O)cc1)NC(=O)[C@H](CO)NC(=O)[C@H](CO)NC(=O)[C@H](CCCCNC(=O)COCCOCCNC(=O)COCCOCCNC(=O)CC[C@H](NC(=O)CCCCCCCCCCC)C(=O)O)NC(=O)[C@H](CC(=O)O)NC(=O)[C@H](CO)NC(=O)[C@@H](NC(=O)[C@](C)(Cc1ccccc1)NC(=O)[C@H](CO)NC(=O)CNC(=O)[C@H](CCC(=O)O)NC(=O)C(C)(C)NC(=O)[C@@H](N)Cc1c[nH]cn1)[C@@H](C)O)[C@@H](C)CC)C(=O)N[C@H](C(=O)N[C@H](C(=O)N[C@@H](CCC(=O)O)C(=O)NCC(=O)NCC(N)=O)C(C)C)C(C)C)C(=O)O` [compound 257] (H-H[Aib]EGS[αMeF]TSDK([AEEA-AEEA-γGlu-Lauroyl])SSYLEGEAA[αMeK]EFIAK([AEEA-AEEA-γGlu-Lauroyl])VVEGG-NH2), the EC50 in experiment [1] (setting [3]), in experiment [1] (setting [4]), in experiment [2] (setting [5]) and in experiment [2] (setting [6]) was at least 22.8 nM throughout.

Take `CCCCCCCCCCCC(=O)N[C@@H](CCC(=O)NCCOCCOCC(=O)NCCOCCOCC(=O)NCCCC[C@H](NC(=O)[C@H](CC(=O)O)NC(=O)[C@H](CO)NC(=O)[C@@H](NC(=O)[C@](C)(Cc1ccccc1)NC(=O)[C@H](CO)NC(=O)CNC(=O)[C@H](CCC(=O)O)NC(=O)C(C)(C)NC(=O)[C@@H](N)Cc1c[nH]cn1)[C@@H](C)O)C(=O)N[C@@H](CO)C(=O)N[C@@H](CO)C(=O)N[C@@H](Cc1ccc(O)cc1)C(=O)N[C@@H](CC(C)C)C(=O)N[C@@H](CCC(=O)O)C(=O)NCC(=O)N[C@@H](CCC(=O)O)C(=O)N[C@@H](C)C(=O)N[C@@H](C)C(=O)N[C@@](C)(CCCCN)C(=O)N[C@@H](CCC(=O)O)C(=O)N[C@@H](Cc1ccccc1)C(=O)N[C@H](C(=O)N[C@@H](C)C(=O)N[C@@H](Cc1c[nH]c2ccccc12)C(=O)N[C@@H](CCCCNC(=O)COCCOCCNC(=O)COCCOCCNC(=O)CC[C@H](NC(=O)CCCCCCCCCCC)C(=O)O)C(=O)N[C@H](C(=O)N[C@@H](CCC(=O)O)C(=O)NCC(=O)NCC(N)=O)C(C)C)[C@@H](C)CC)C(=O)O` [compound 258] (H-H[Aib]EGS[αMeF]TSDK([AEEA-AEEA-γGlu-Lauroyl])SSYLEGEAA[αMeK]EFIAWK([AEEA-AEEA-γGlu-Lauroyl])VEGG-NH2): the EC50 in experiment [1] (setting [3]), in experiment [1] (setting [4]), in experiment [2] (setting [5]) and in experiment [2] (setting [6]) was at least 22.3 nM in each case.

Consider `CCCCCCCCCCCC(=O)N[C@@H](CCC(=O)NCCOCCOCC(=O)NCCOCCOCC(=O)NCCCC[C@H](NC(=O)[C@H](CO)NC(=O)[C@](C)(CO)NC(=O)[C@@H](NC(=O)[C@H](CC(=O)O)NC(=O)[C@H](CO)NC(=O)[C@@H](NC(=O)[C@](C)(Cc1ccccc1)NC(=O)[C@H](CO)NC(=O)CNC(=O)[C@H](CCC(=O)O)NC(=O)C(C)(C)NC(=O)[C@@H](N)Cc1c[nH]cn1)[C@@H](C)O)C(C)C)C(=O)N[C@@H](CC(C)C)C(=O)N[C@@H](CCC(=O)O)C(=O)NCC(=O)N[C@@H](CCC(=O)O)C(=O)N[C@@H](C)C(=O)N[C@@H](C)C(=O)N[C@@](C)(CCCCN)C(=O)N[C@@H](CCC(=O)O)C(=O)N[C@@H](Cc1ccccc1)C(=O)N[C@H](C(=O)N[C@@H](CCCCNC(=O)COCCOCCNC(=O)COCCOCCNC(=O)CC[C@H](NC(=O)CCCCCCCCCCC)C(=O)O)C(=O)N[C@@H](Cc1c[nH]c2ccccc12)C(=O)N[C@H](C(=O)N[C@H](C(=O)N[C@@H](CCC(=O)O)C(=O)NCC(=O)NCC(N)=O)C(C)C)C(C)C)[C@@H](C)CC)C(=O)O` [compound 262] (H-H[Aib]EGS[αMeF]TSDV[αMeS]SK([AEEA-AEEA-γGlu-Lauroyl])LEGEAA[αMeK]EFIK([AEEA-AEEA-γGlu-Lauroyl])WVVEGG-NH2; N-terminus assumed), for which the EC50 in experiment [1] (setting [3]), in experiment [1] (setting [4]), in experiment [2] (setting [5]) and in experiment [2] (setting [6]) was at least 22.5 nM in each case.

As for `CCCCCCCCCCCCCC(=O)N[C@@H](CCC(=O)NCCOCCOCC(=O)NCCOCCOCC(=O)NCCCC[C@H](NC(=O)[C@H](C)NC(=O)[C@@H](NC(=O)[C@](C)(Cc1ccccc1)NC(=O)[C@H](CCC(=O)O)NC(=O)[C@](C)(CCCCN)NC(=O)[C@H](C)NC(=O)[C@H](C)NC(=O)[C@H](CCC(=O)O)NC(=O)CNC(=O)[C@H](CCC(=O)O)NC(=O)[C@H](CC(C)C)NC(=O)[C@H](CCCCNC(=O)COCCOCCNC(=O)COCCOCCNC(=O)CC[C@H](NC(=O)CCCCCCCCCCCCC)C(=O)O)NC(=O)[C@H](CO)NC(=O)[C@](C)(CO)NC(=O)[C@@H](NC(=O)[C@H](CC(=O)O)NC(=O)[C@H](CO)NC(=O)[C@@H](NC(=O)[C@](C)(Cc1ccccc1)NC(=O)[C@H](CO)NC(=O)CNC(=O)[C@H](CCC(=O)O)NC(=O)C(C)(C)NC(=O)[C@@H](N)Cc1c[nH]cn1)[C@@H](C)O)C(C)C)[C@@H](C)CC)C(=O)N[C@H](C(=O)N[C@H](C(=O)N[C@@H](CCC(=O)O)C(=O)NCC(=O)NCC(N)=O)C(C)C)C(C)C)C(=O)O` [compound 408] (H-H[Aib]EGS[αMeF]TSDV[αMeS]SK([AEEA-AEEA-γGlu-Myristoyl])LEGEAA[αMeK]E[αMeF]IAK([AEEA-AEEA-γGlu-Myristoyl])VVEGG-NH2), the EC50 in experiment [1] (setting [3]), in experiment [1] (setting [4]), in experiment [2] (setting [5]) and in experiment [2] (setting [6]) was at least 21.5 nM in each case.

In the case of `CCCCCCCCCCCCCCCC(=O)N[C@@H](CCC(=O)NCCOCCOCC(=O)NCCOCCOCC(=O)NCCCC[C@H](NC(=O)[C@H](C)NC(=O)[C@@H](NC(=O)[C@](C)(Cc1ccccc1)NC(=O)[C@H](CCC(=O)O)NC(=O)[C@](C)(CCCCN)NC(=O)[C@H](C)NC(=O)[C@H](C)NC(=O)[C@H](CCC(=O)O)NC(=O)CNC(=O)[C@H](CCC(=O)O)NC(=O)[C@H](CC(C)C)NC(=O)[C@H](CCCCNC(=O)COCCOCCNC(=O)COCCOCCNC(=O)CC[C@H](NC(=O)CCCCCCCCCCCCCCC)C(=O)O)NC(=O)[C@H](CO)NC(=O)[C@](C)(CO)NC(=O)[C@@H](NC(=O)[C@H](CC(=O)O)NC(=O)[C@H](CO)NC(=O)[C@@H](NC(=O)[C@](C)(Cc1ccccc1)NC(=O)[C@H](CO)NC(=O)CNC(=O)[C@H](CCC(=O)O)NC(=O)C(C)(C)NC(=O)[C@@H](N)Cc1c[nH]cn1)[C@@H](C)O)C(C)C)[C@@H](C)CC)C(=O)N[C@H](C(=O)N[C@H](C(=O)N[C@@H](CCC(=O)O)C(=O)NCC(=O)NCC(N)=O)C(C)C)C(C)C)C(=O)O` [compound 409] (H-H[Aib]EGS[αMeF]TSDV[αMeS]SK([AEEA-AEEA-γGlu-Palmitoyl])LEGEAA[αMeK]E[αMeF]IAK([AEEA-AEEA-γGlu-Palmitoyl])VVEGG-NH2; N-terminus assumed), the EC50 in experiment [1] (setting [3]), in experiment [1] (setting [4]), in experiment [2] (setting [5]) and in experiment [2] (setting [6]) was at least 21.5 nM throughout.

Consider `CCCCCCCCCCCCCCCCCC(=O)N[C@@H](CCC(=O)NCCOCCOCC(=O)NCCOCCOCC(=O)NCCCC[C@H](NC(=O)[C@H](C)NC(=O)[C@@H](NC(=O)[C@](C)(Cc1ccccc1)NC(=O)[C@H](CCC(=O)O)NC(=O)[C@](C)(CCCCN)NC(=O)[C@H](C)NC(=O)[C@H](C)NC(=O)[C@H](CCC(=O)O)NC(=O)CNC(=O)[C@H](CCC(=O)O)NC(=O)[C@H](CC(C)C)NC(=O)[C@H](CCCCNC(=O)COCCOCCNC(=O)COCCOCCNC(=O)CC[C@H](NC(=O)CCCCCCCCCCCCCCCCC)C(=O)O)NC(=O)[C@H](CO)NC(=O)[C@](C)(CO)NC(=O)[C@@H](NC(=O)[C@H](CC(=O)O)NC(=O)[C@H](CO)NC(=O)[C@@H](NC(=O)[C@](C)(Cc1ccccc1)NC(=O)[C@H](CO)NC(=O)CNC(=O)[C@H](CCC(=O)O)NC(=O)C(C)(C)NC(=O)[C@@H](N)Cc1c[nH]cn1)[C@@H](C)O)C(C)C)[C@@H](C)CC)C(=O)N[C@H](C(=O)N[C@H](C(=O)N[C@@H](CCC(=O)O)C(=O)NCC(=O)NCC(N)=O)C(C)C)C(C)C)C(=O)O` [compound 410] (H-H[Aib]EGS[αMeF]TSDV[αMeS]SK([AEEA-AEEA-γGlu-Stearoyl])LEGEAA[αMeK]E[αMeF]IAK([AEEA-AEEA-γGlu-Stearoyl])VVEGG-NH2; N-terminus assumed), for which the EC50 in experiment [1] (setting [3]), in experiment [1] (setting [4]), in experiment [2] (setting [5]) and in experiment [2] (setting [6]) was at least 21.5 nM each time.
